Counter-ions that a name gives are not always drawn.
Legend:
rhVAP-1 = rhVAP-1 (Homo sapiens (Human), UniProt Q16853); test: Inhibition activity of the compounds on the rhVAP-1 enzyme (Amplex Red/HRP fluorescence, benzylamine substrate); assay type: biochemical; settings: 30 minutes pre-incubation at 37° C.
Experimental: 1. Inhibition Activity of the Compounds on the rhVAP-1 Enzyme
Multifunctional microplate reader (MD, FlexStation 3), black bottom-impermeable 96-well plate (Corning), rhVAP-1 (PeproTech)
An appropriate amount of the test compound was dissolved in DMSO to 10 mM and stored. Before the experiment, an appropriate amount of 10 mM test compound mother liquor was diluted to 10 μM solution with DMSO. Then 3-fold gradient dilution with DMSO was performed, and 10 concentration gradients were formed.
An appropriate amount of protein diluent was added to the rhVAP-1 powder to obtain 1 mg/mL of the mother liquor for storage. Before the experiment, the dilution with PBS provided a 4×concentration of the enzyme solution.
An appropriate amount of benzylamine was added to PBS and dissolved to obtain 200 mM of the benzylamine solution. 2 mM Amplex Red mother liquor and 500 U/mL HRP mother liquor were added. The dilution with PBS provided 2×concentration substrate mixed solution.
First, 10 μL of compound solutions of different concentrations, 25 μL of 4×rhVAP-1 enzyme solution and 15 μL of PBS were added to a 96-well plate, evenly mixed by oscillation, and incubated at 37° C. for 30 minutes. Then 50 μL of 2×substrate mixed solution was added to each well, and immediately the detection was performed with the microplate reader in a condition of an exciting light at 565 nm, an emitting light at 590 nm, the fluorescence intensity for detecting each well of 5 minutes/run, and a total detection time of 25 minutes. The inhibition rate was calculated according to the following formula: V(RFU/min)=(Ft(RFU)−F0(RFU))/(Time(min)) Inhibition rate (%)=100%−Vcmpd(RFU/min)/V max(RFU/min)×100%
(§1) V: the fluorescence change rate; Ft: fluorescence reading at the time point t; F0: fluorescence reading at the time point 0; Time: time period t; Vcmpd: the fluorescence change rate of the test compound; Vmax: the Max well fluorescence change rate.
(§2) The log values of the concentrations were taken as the X-axis and the percent inhibition rates were taken as the Y-axis, and the dose-effect curve was fitted using the log(inhibitor) vs. response-Variable slope of the analytical software GraphPad Prism 5 to obtain the IC50 value of each compound for enzyme activity.

MAO-B = MAO-B (Homo sapiens (Human), UniProt P27338); test: Selectivity of the compounds for MAO-B enzyme (MAO-Glo); assay type: biochemical; settings: 60 minutes pre-incubation at 37° C.
Experimental: (§3) 2. Selectivity of the Compounds for MAO-A/B Enzymes
(§4) Microplate reader (Perkin Elmer, Envision), 384 well plates (Perkin Elmer), centrifuge (Eppendorf), MAO-Glo™ (Promega), MAO-A (Active Motif) and MAO-B (Active Motif).
(§5) An appropriate amount of the test compound was dissolved in DMSO to 10 mM and stored. Before the experiment, an appropriate amount of 10 mM test compound mother liquor was diluted to 100 μM solution with DMSO. Then 4-fold gradient dilution with DMSO was performed, and 6 concentration gradients were formed.
(§6) The MAO-A/B mother liquor was diluted to 2×concentration enzyme solution with the assay buffer solution for the MAO-A/B.
(§7) The mother liquor of the MAO-A/B substrate mixed solution was diluted to 2×concentration substrate mixed solution with the assay buffer solution for the MAO-A/B.
(§8) 200 nL of compound solutions of different concentrations or solvent
(§9) and 10 μL of 2×MAO-A/B enzyme solution were added to a 384-well plate, evenly mixed by oscillation, and incubated at 37° C. for 60 minutes. Then 10 μL of 2×substrate mixed solution was added to each well, and immediately the detection was performed with the microplate reader in a condition of an exciting light at 535 nm, an emitting light at 587 nm, the fluorescence intensity for detecting each well of 5 minutes/run, and a total detection time of 25 minutes.
(§10) The inhibition rate was calculated according to the following formula: V(RFU/min)=(Ft(RFU)−F0(RFU))/(Time(min)) Inhibition rate (%)=100%−Vcmpd(RFU/min)/V max(RFU/min)×100%
as §1, §2

MAO-A = MAO-A (Homo sapiens (Human), UniProt P21397); test: Selectivity of the compounds for MAO-A enzyme (MAO-Glo); assay type: biochemical; settings: 60 minutes pre-incubation at 37° C.
Experimental: as §3, §4, §5, §6, §7, §8, §9, §10, §1, §2

[1] = In vitro stability test in the dog plasma; assay type: in vitro ADME; settings: Beagle dog plasma, 37° C., 2 hours, 0.2 μM
Experimental: Biological Example 2: In Vitro Stability Test of the Compound of the Present Invention in the Dog Plasma
Test compound: about 2 mg of test compound was prepared with DMSO into a 5 mM stock solution, then diluted with DMSO to 1 mM solution, and finally diluted with water to 50 μM test compound working solution for use.
Termination solution: about 2 mg of tolbutamide compound was firstly prepared with DMSO into a 1 mg/mL stock solution, finally diluted with acetonitrile to 100 ng/mL termination solution, and stored at 4° C. for later use.
(1) Frozen Beagle dog plasma was pre-incubated and thawed in a 37° C. water bath constant temperature oscillator for use.
(2) 10 μL of test compound (10 μM) was added to 490M (Beagle dog plasma, final concentration of the test substance was 0.2 μM, two duplicate samples.
(3) The sample was evenly mixed in vortex and incubated in a 37° C. water bath constant temperature oscillator.
(4) At the corresponding time points (T=0 h, 0.5 h, 1 h, 2 h; sample at 0 h was not incubated), 400 μL of the termination solution was added to 40 μL of the reaction solution obtained by reacting the test compound of step (2) and the components in the blood plasma, and the resulting mixture was evenly mixed and frozen at −80° C. for storage. […]

[2] = Stability test in human liver microsome; assay type: in vitro ADME; settings: human liver microsome 0.5 mg protein/mL, compound 1 μM, β-NADPH
Experimental: Biological Example 3: Stability Test of the Compounds of the Present Invention in Human Liver Microsome
The composition of the incubation system:
(1) The liver microsome (20 mg protein/mL) was removed from the −80° C. refrigerator, pre-incubated in a 37° C. water bath constant temperature oscillator for 3 minutes, and thawed for use.
(2) A mixed solution of the incubation system (excluding compound and β-NADPH) according to the above “composition of the incubation system” for the test was prepared, and pre-incubated in a 37° C. water bath constant temperature oscillator for 2 minutes.
(3) Control group (excluding β-NADPH): 30 μL of water and 30 μL of compound working solution (concentration: 10 μM) were added to 240 μL of the mixed solution of the incubation system of step (2), and vortexed for 30 seconds to mix well. The total reaction volume was 300 μL. A duplicate sample was prepared. The sample was incubated in a 37° water bath constant temperature oscillator. The timing began and the sampling time points were set at 0 minute and 60 minutes.
(4) Sample group: 70 μL β-NADPH solution (10 mM) and 70 μL compound working solution (concentration: 10 μM) were added to 560 μL of the mixed solution in step (2). The total reaction volume was 700 μL. The resulting mixture was vortexed for 30 seconds to mix well. A duplicate sample was prepared. The sample was incubated in a 37° C. water bath constant temperature oscillator. The timing began and the sampling time points were set at 0 minute, 5 minutes, 10 minutes, 20 minutes, 30 minutes, and 60 minutes after timing.
(5) After vortexing for 3 minutes, the sample was centrifuged at 12000 rpm for 5 minutes.
(6) 150 μL of water was added to 50 μL of the supernatant. The resulting mixture was evenly mixed in vortex, and the sample LC/MS/MS analysis was performed.

Chain of rhVAP-1 (Q16853 whole entry): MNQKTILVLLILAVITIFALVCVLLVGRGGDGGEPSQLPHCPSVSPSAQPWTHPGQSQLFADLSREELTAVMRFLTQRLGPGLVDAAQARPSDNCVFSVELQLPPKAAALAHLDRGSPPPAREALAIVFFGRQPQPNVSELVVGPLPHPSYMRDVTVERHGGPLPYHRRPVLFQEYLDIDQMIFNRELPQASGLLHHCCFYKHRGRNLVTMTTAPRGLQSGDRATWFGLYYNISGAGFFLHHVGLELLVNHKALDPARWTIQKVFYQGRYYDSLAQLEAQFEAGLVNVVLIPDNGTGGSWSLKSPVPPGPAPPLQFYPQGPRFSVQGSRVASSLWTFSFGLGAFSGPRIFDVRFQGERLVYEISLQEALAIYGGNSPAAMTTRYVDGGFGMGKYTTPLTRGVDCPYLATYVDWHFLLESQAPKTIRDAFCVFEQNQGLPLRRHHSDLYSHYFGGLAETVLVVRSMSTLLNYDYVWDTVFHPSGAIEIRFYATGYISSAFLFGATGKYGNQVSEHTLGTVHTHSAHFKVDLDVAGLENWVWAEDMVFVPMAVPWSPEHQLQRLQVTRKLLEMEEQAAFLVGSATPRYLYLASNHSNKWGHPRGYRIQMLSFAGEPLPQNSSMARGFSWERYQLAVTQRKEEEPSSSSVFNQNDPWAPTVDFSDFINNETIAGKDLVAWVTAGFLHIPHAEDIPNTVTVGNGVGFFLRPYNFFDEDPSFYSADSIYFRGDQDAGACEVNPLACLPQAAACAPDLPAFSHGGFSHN
Chain of MAO-B (P27338 whole entry): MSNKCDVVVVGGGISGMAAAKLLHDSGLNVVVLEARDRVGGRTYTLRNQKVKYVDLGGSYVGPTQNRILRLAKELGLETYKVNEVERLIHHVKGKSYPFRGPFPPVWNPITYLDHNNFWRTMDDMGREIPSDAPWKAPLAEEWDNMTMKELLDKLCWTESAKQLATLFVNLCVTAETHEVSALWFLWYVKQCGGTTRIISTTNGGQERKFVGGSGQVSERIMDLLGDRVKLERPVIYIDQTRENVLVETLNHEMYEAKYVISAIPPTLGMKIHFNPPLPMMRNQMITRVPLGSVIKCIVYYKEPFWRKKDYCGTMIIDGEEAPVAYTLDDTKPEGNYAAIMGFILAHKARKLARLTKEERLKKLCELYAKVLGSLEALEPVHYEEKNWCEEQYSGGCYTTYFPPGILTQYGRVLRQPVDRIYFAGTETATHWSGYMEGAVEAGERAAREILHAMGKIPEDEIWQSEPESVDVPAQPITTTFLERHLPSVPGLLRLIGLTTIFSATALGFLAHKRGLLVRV
Chain of MAO-A (P21397 whole entry): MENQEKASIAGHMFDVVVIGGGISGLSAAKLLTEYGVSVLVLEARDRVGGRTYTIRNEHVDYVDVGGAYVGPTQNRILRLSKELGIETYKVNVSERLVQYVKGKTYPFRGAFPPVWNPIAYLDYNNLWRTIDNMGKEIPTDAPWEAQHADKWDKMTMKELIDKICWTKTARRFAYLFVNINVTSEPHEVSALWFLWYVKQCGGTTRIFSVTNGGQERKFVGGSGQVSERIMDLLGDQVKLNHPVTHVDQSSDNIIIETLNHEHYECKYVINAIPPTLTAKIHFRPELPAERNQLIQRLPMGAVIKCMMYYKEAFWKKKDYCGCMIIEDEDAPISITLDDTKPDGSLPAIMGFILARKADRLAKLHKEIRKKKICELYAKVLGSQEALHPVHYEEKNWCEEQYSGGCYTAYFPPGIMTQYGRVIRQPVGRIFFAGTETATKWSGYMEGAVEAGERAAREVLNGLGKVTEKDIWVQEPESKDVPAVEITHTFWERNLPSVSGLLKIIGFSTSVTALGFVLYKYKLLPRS

IC50 (rhVAP-1): 0.018 µM | IC50 (MAO-B): 6.3 µM | IC50 (MAO-A): 1.3 µM | Retention Rate [1]: 98.6% | ClH [2]: 0.278 L/h/kg
Structure (SMILES): NC/C(=C\F)COc1ccc2c(c1)CCN(C1CC1)C2=O [Hydrochloride of Compound 5, (E)-6-((2-(aminomethyl)-3-fluoroallyl)oxy)-2-cyclopropyl-3,4-dihydroisoquinolin-1(2H)-one]
